This is an account of results in patent US6806229B1, “Herbicidally active pyridine sulfonyl urea derivatives” (LG Life Sciences, priority 2003, dated 2004).

Where two headings read alike, the source gives them in different places.

In data set [1] the test system is Oryza sativa. The experiment in a line: Phytotoxicity to rice (direct-seeded and transplanted) in paddy condition, greenhouse pot test. It is filed as in vivo. The settings on record: visual rating after two weeks; for Phytotoxicity, Oryza sativa, Seed: direct-seeded rice, treated 5 days after sowing; for Phytotoxicity, Oryza sativa, Transplanted: transplanted rice seedlings, treated 5 days after transplanting. The text has this:
(§1) Pots having a surface area of 150 cm^2 were filled with a small amount of fertilizer and sterilized paddy field soil in a muddy state with a depth of 5 cm. Five (5) seeds of pre-germinated rice were directly sown on the soil surface and three (3) rice seedlings (2˜3 leaves) prepared in advance were transplanted in a depth of 2 cm in each pot. In another pot, seeds of barnyardgrass were sown and incorporated into the surface layer of soil. After sowing and transplanting of rice plant and sowing of barnyardgrass, the pots were flooded with water 3 cm deep and kept in a greenhouse. The rice plant was treated with the chemicals 5 days after sowing or transplanting, and barnyardgrass was treated with the chemicals at the pre-emergence (5 days after from sowing) and post-emergence stage (at the three-leaf stage, usually after 15 days from sowing).
(§2) Suitable herbicidal compositions were prepared by mixing and dissolving 1 part by weight of the active compound with 5 parts by weight of acetone and 1 part by weight of alkylaryl polyglycolether as an emulsifier and then diluting with water to the predetermined concentration. Application was made by dropping the herbicide solutions onto the water surface of the pots.

Data set [2] deals with Echinochloa crus-galli. The experiment in a line: Herbicidal activity to barnyardgrass in paddy condition, pre- and post-emergence, greenhouse pot test. It is filed as in vivo. The settings on record: for pest or weed control at 5 g/ha / pest or weed control at 10 g/ha / pest or weed control at 20 g/ha / pest or weed control at 30 g/ha: Echinochloa crus-galli, 336 h, visual rating after two weeks.
Excerpt: as §1, §2

[3] abbreviates: 80 g/ha, 0 = none, 100 = complete death.
Where [4] appears, read: post-emergence, three-leaf stage, read-out: Herbicidal activity, Echinochloa crus-galli, Post-emergence (3-Leaf stage).
[5] abbreviates: pre-emergence (5 days after sowing), read-out: Herbicidal activity, Echinochloa crus-galli, Pre-emergence.
Where [6] appears, read: 20 g/ha, post-emergence, three-leaf stage, read-out: Herbicidal activity, Echinochloa crus-galli, Post-emergence (3-Leaf stage).
Where [7] appears, read: 20 g/ha, pre-emergence (5 days after sowing), read-out: Herbicidal activity, Echinochloa crus-galli, Pre-emergence.
Where [8] appears, read: pre-emergence (5 days after sowing), 0 = no activity, 100 = complete death, read-out: Herbicidal activity, Echinochloa crus-galli, Pre-emergence.

In the case of `COCC(=O)O[C@H](c1nccc(C)c1S(=O)(=O)NC(=O)Nc1nc(OC)cc(OC)n1)[C@H](C)F` [Com. 7], the “Phytotoxicity, Oryza sativa, Seed” value in data set [1] (10 g/ha) turned out to be 0%; in data set [1] (20 g/ha), 0%; in data set [1] (40 g/ha), 20%; in data set [1] (setting [3]), 30%. Also, the “Phytotoxicity, Oryza sativa, Transplanted” value (shortened to “Phytotoxicity … Transplanted”) is given as 0% in data set [1] (10 g/ha), 0% in data set [1] (20 g/ha), 10% in data set [1] (40 g/ha) and 20% in data set [1] (80 g/ha). In addition, the pest or weed control at 5 g/ha in data set [2] (setting [4]) worked out at 50%; in data set [2] (setting [5]) it was 60%. In addition, the pest or weed control at 10 g/ha in data set [2] (setting [4]) and in data set [2] (setting [5]) was 80% throughout. The pest or weed control at 20 g/ha in data set [2] (setting [6]) was 95%; in data set [2] (setting [7]), 90%. Besides, the pest or weed control at 30 g/ha in data set [2] (setting [4]) and in data set [2] (setting [8]) was 100% throughout.

Regarding `COc1cc(OC)nc(NC(=O)NS(=O)(=O)c2cccnc2[C@@H](OC(=O)CCO)[C@H](C)F)n1` [Com. 3], the “Phytotoxicity, Oryza sativa, Seed” value in data set [1] (10 g/ha) is given as 0%; in data set [1] (20 g/ha), 10%; in data set [1] (40 g/ha) it was 30%; in data set [1] (setting [3]), 30%. Further, the “Phytotoxicity … Transplanted” value is reported as 5% in data set [1] (10 g/ha), 10% in data set [1] (20 g/ha), 20% in data set [1] (40 g/ha) and 20% in data set [1] (80 g/ha). The pest or weed control at 5 g/ha in data set [2] (setting [4]) and in data set [2] (setting [5]) was 60% in each case. Further, the pest or weed control at 10 g/ha in data set [2] (setting [4]) came to 80%; in data set [2] (setting [5]), 90%. Also, the pest or weed control at 20 g/ha was found to be 90% in data set [2] (setting [6]) and 95% in data set [2] (setting [7]). The pest or weed control at 30 g/ha in data set [2] (setting [4]) and in data set [2] (setting [8]) was 100% each time.

Take `COCC(=O)O[C@H](c1nccc(Cl)c1S(=O)(=O)NC(=O)Nc1nc(OC)cc(OC)n1)[C@H](C)F` [Com. 5]: the “Phytotoxicity, Oryza sativa, Seed” value in data set [1] (10 g/ha) was 0%; in data set [1] (20 g/ha) it was 10%; in data set [1] (40 g/ha), 20%; in data set [1] (setting [3]), 30%. Moreover, the “Phytotoxicity … Transplanted” value is on record as 0% in data set [1] (10 g/ha), 0% in data set [1] (20 g/ha), 0% in data set [1] (40 g/ha) and 20% in data set [1] (80 g/ha). The pest or weed control at 5 g/ha in data set [2] (setting [4]) is 60%; in data set [2] (setting [5]), 50%. For the same molecule, the pest or weed control at 10 g/ha is 70% in data set [2] (setting [4]) and 80% in data set [2] (setting [5]). In addition, the pest or weed control at 20 g/ha in data set [2] (setting [6]) and in data set [2] (setting [7]) was 90% in each case. In addition, the pest or weed control at 30 g/ha in data set [2] (setting [4]) and in data set [2] (setting [8]) was 100% each time.

Regarding `COc1cc(OC)nc(NC(=O)NS(=O)(=O)c2ccccc2[C@@H](O)[C@H](C)F)n1` [Standard Compound A, reference compound], the “Phytotoxicity, Oryza sativa, Seed” value in data set [1] (10 g/ha) is listed as 40%; in data set [1] (20 g/ha), 40%; in data set [1] (40 g/ha) it was 50%; in data set [1] (setting [3]), 80%. The “Phytotoxicity … Transplanted” value in data set [1] (10 g/ha) is 20%; in data set [1] (20 g/ha), 30%; in data set [1] (40 g/ha), 40%; in data set [1] (80 g/ha) it was 70%. Further, the pest or weed control at 5 g/ha in data set [2] (setting [4]) and in data set [2] (setting [5]) was 60% throughout. Moreover, the pest or weed control at 10 g/ha in data set [2] (setting [4]) worked out at 90%; in data set [2] (setting [5]) it was 100%. The pest or weed control at 20 g/ha in data set [2] (setting [6]) was 95%; in data set [2] (setting [7]) it was 100%. The pest or weed control at 30 g/ha in data set [2] (setting [4]) and in data set [2] (setting [8]) was 100% each time.

Regarding `COCC(=O)O[C@H](c1nccc(Br)c1S(=O)(=O)NC(=O)Nc1nc(OC)cc(OC)n1)[C@H](C)F` [Com. 6], the “Phytotoxicity, Oryza sativa, Seed” value came out at 0% in data set [1] (10 g/ha), 0% in data set [1] (20 g/ha), 10% in data set [1] (40 g/ha) and 20% in data set [1] (setting [3]). Also, the “Phytotoxicity … Transplanted” value in data set [1] (10 g/ha) worked out at 0%; in data set [1] (20 g/ha), 0%; in data set [1] (40 g/ha), 0%; in data set [1] (80 g/ha), 20%. Moreover, the pest or weed control at 5 g/ha in data set [2] (setting [4]) came to 50%; in data set [2] (setting [5]), 60%. Besides, the pest or weed control at 10 g/ha was found to be 70% in data set [2] (setting [4]) and 80% in data set [2] (setting [5]). Besides, the pest or weed control at 20 g/ha in data set [2] (setting [6]) was 90%; in data set [2] (setting [7]), 100%. Moreover, the pest or weed control at 30 g/ha in data set [2] (setting [4]) and in data set [2] (setting [8]) was 100% in each case.

Regarding `CCOC(=O)c1cnn(C)c1S(=O)(=O)NC(=O)Nc1nc(OC)cc(OC)n1` [Standard Compound E, Pyrazosulfuron-ethyl, reference compound], the “Phytotoxicity, Oryza sativa, Seed” value in data set [1] (10 g/ha) turned out to be 0%; in data set [1] (20 g/ha) it was 10%; in data set [1] (40 g/ha), 20%; in data set [1] (setting [3]) it was 30%. Also, the “Phytotoxicity … Transplanted” value in data set [1] (10 g/ha) is on record as 0%; in data set [1] (20 g/ha) it was 0%; in data set [1] (40 g/ha) it was 0%; in data set [1] (80 g/ha) it was 10%. The “herbicidal activity to barnyardgrass” value in data set [2] (20 g/ha, pre- or post-emergence treatments) is recorded as 10%. For the same molecule, the pest or weed control at 5 g/ha in data set [2] (setting [4]) and in data set [2] (setting [5]) was 0% each time. Moreover, the results for the pest or weed control at 10 g/ha in data set [2] (setting [4]) and in data set [2] (setting [5]) were 0% and 10%, respectively. Besides, the pest or weed control at 20 g/ha in data set [2] (setting [6]) came out at 0%; in data set [2] (setting [7]) it was 20%. The pest or weed control at 30 g/ha in data set [2] (setting [4]) came out at 20%; in data set [2] (setting [8]) it was 30%.

In the case of `COc1cc(OC)nc(NC(=O)NS(=O)(=O)c2cccnc2[C@@H](OC(C)=O)[C@H](C)F)n1` [Standard Compound D, reference compound], the “Phytotoxicity, Oryza sativa, Seed” value in data set [1] (10 g/ha) is recorded as 10%; in data set [1] (20 g/ha) it was 20%; in data set [1] (40 g/ha), 30%; in data set [1] (setting [3]), 60%. Further, the “Phytotoxicity … Transplanted” value stood at 0% in data set [1] (10 g/ha), 10% in data set [1] (20 g/ha), 20% in data set [1] (40 g/ha) and 50% in data set [1] (80 g/ha). In addition, the pest or weed control at 5 g/ha in data set [2] (setting [4]) amounted to 50%; in data set [2] (setting [5]), 30%. In addition, the pest or weed control at 10 g/ha turned out to be 90% in data set [2] (setting [4]) and 100% in data set [2] (setting [5]). The pest or weed control at 20 g/ha in data set [2] (setting [6]) and in data set [2] (setting [7]) was 100% throughout. For the same molecule, the pest or weed control at 30 g/ha in data set [2] (setting [4]) and in data set [2] (setting [8]) was 100% throughout.

Take `COc1cc(OC)nc(NC(=O)NS(=O)(=O)c2cccnc2[C@@H](O)[C@H](C)F)n1` [Standard Compound C, reference compound]: the “Phytotoxicity, Oryza sativa, Seed” value in data set [1] (10 g/ha) was 10%; in data set [1] (20 g/ha), 20%; in data set [1] (40 g/ha) it was 30%; in data set [1] (setting [3]) it was 70%. For the same molecule, the “Phytotoxicity … Transplanted” value in data set [1] (10 g/ha) is recorded as 10%; in data set [1] (20 g/ha), 20%; in data set [1] (40 g/ha), 30%; in data set [1] (80 g/ha), 50%. Besides, the pest or weed control at 5 g/ha turned out to be 60% in data set [2] (setting [4]) and 40% in data set [2] (setting [5]). Further, the pest or weed control at 10 g/ha in data set [2] (setting [4]) worked out at 90%; in data set [2] (setting [5]), 100%. Further, the pest or weed control at 20 g/ha in data set [2] (setting [6]) and in data set [2] (setting [7]) was 100% in each case. Moreover, the pest or weed control at 30 g/ha in data set [2] (setting [4]) and in data set [2] (setting [8]) was 100% in each case.
